Experimental data taken from US4181728A, “Spiro-polycyclicimidazolidinedione derivatives” (Pfizer Inc., priority 1978, dated 1980).

Columns and labels:
[1] = molecular target: T1, aldose reductase enzyme obtained from calf lens (Bos taurus, UniProt P16116); assay: Aldose reductase inhibitory activity (partially purified calf lens enzyme); type: biochemical; settings: 10^-4 M, * = average of 2 or 3 tests (Examples 2, 5, 6, 7)
T1 construct: partially purified aldose reductase enzyme obtained from calf lens; from tissue; host or cells: calf lens
Description: The Examples of spiro-polycyclicimidazolidinedione derivatives prepared above were tested for their ability to reduce or inhibit aldose reductase enzyme activity, following the procedure described in U.S. Pat. No. 3,821,383 and based on the procedure of Hayman et. al., Journal of Biological Chemistry, 240, 877 (1965). The substrate employed was partially purified aldose reductase enzyme obtained from calf lens. The drug was tested at a concentration of 10^-4 M and optionally at lower concentrations and the results are expressed as percent inhibition of enzyme activity.
*This number represents an average of 2 or 3 tests.

[2] = test system: sorbitol accumulation in the sciatic nerve; assay: Inhibition of sorbitol accumulation in the sciatic nerve of streptozotocinized (diabetic) rats; type: in vivo, rat; settings: measured 27 h after induction, vs untreated
Description: Some of the Examples of spiro-polycyclicimidazolidinedione derivatives prepared above were also tested for their ability to reduce or inhibit sorbitol accumulation in the sciatic nerve of streptozotocinized (i.e., diabetic) rats by the procedure essentially described in U.S. Pat. No. 3,821,383. In the present study, the amount of sorbitol accumulation in the sciatic nerves was measured 27 hours after induction of diabetes. The compounds were administered orally at the dose level indicated at 4, 8 and 24 hours following the administration of streptozotocin. The results obtained in this manner are presented in terms of percent inhibition (%) afforded by the test compound as compared to the case where no compound was administered (i.e., the untreated animal where sorbitol levels normally rise from approximately […] tissue to as high as 400 mM/g tissue in the 27-hour test period).

[3] = 1.5 mg/kg oral at 4, 8 and 24 h after streptozotocin
[4] = 5.0 mg/kg oral at 4, 8 and 24 h after streptozotocin

Compound	inhibition at 100 µM [1]	% Inhibition of sorbitol accumulation [2, 3]	% Inhibition of sorbitol accumulation [2, 4]
O=C1NC(=O)C2(CCSc3ccc4ccccc4c32)N1 (centres unmarked) [Example 1, 2',3'-dihydro-spiro[imidazolidine-4,4'-[4'H]-naphtho[2,1-b]thiopyran]-2,5-dione]	59%		
COc1cccc2c3c(ccc12)C1(CCO3)NC(=O)NC1=O (centres unmarked) [Example 2, 2',3'-dihydro-7'-methoxy-spiro[imidazolidine-4,4'-[4'H]-naphtho[1,2-b]pyran]-2,5-dione]	94%	no effect	
O=C1NC(=O)C2(CCCc3ccc4cc5ccccc5cc4c32)N1 (centres unmarked) [Example 3, 1',2',3',4'-tetrahydro-spiro[imidazolidine-4,1'-benz[a]anthracene]-2,5-dione]	26%		
O=C1NC(=O)C2(CCSc3c2ccc2ccccc32)N1 (centres unmarked) [Example 4, 2',3'-dihydro-spiro[imidazolidine-4,4'-[4'H]-naphtho[1,2-b]thiopyran]-2,5-dione]	100%	32%	
O=C1NC(=O)C2(CCOc3c2cc(Cl)c2ccccc32)N1 (centres unmarked) [Example 5, 5',6'-dihydro-6'-chloro-spiro[imidazolidine-4,4'-[4'H]-naphtho[1,2-b]pyran]-2,5-dione]	78%		58%
O=C1NC(=O)C2(CCOc3ccc4ccccc4c32)N1 (centres unmarked) [Example 6, 2',3'-dihydro-spiro[imidazolidine-4,4'-[4'H]-naphtho[2,1-b]pyran]-2,5-dione]	78%	no effect	
O=C1NC(=O)C2(CCCc3c2ccc2ccccc32)N1 (centres unmarked) [Example 7, 1',2',3',4'-tetrahydro-spiro[imidazolidine-4,1'-phenanthrene]-2,5-dione]	86%	no effect	
O=C1NC(=O)C2(CCc3cccc4cccc2c34)N1 (centres unmarked) [Example 8, 2',3'-dihydro-spiro[imidazolidine-4,1'-phenalene]-2,5-dione]	71%		28%
O=C1NC(=O)C2(CCOc3c2ccc2ccccc32)N1 (centres unmarked) [Example 9, 2',3'-dihydro-spiro[imidazolidine-4,4'-[4'H]-naphtho[1,2-b]pyran]-2,5-dione]	72%	30%	
O=C1NC(=O)C2(CCCc3ccc4ccccc4c32)N1 (centres unmarked) [Example 10, 1',2',3',4'-tetrahydro-spiro[imidazolidine-4,4'-phenanthrene]-2,5-dione]	60%		
